Data from US9422336B2 (priority 2012, dated 2016).

Tests used:
[1] = system: acute visceral pain model in mice; experiment: acute visceral pain model in mice (acetic acid writhing); conditions: n=6
H5N1 viruses = format: cell-based, influenza A virus H5N1; conditions: 0.001-10 μM; MDCK monolayer; 5,000 pfu/ml; 3 days; FIG. 7 left panel
[2] = system: sciatic nerve injured limb (allodynia); experiment: von Foley hair test (mechanical stimulation) after partial sciatic nerve injury; format: in vivo, C57BL/6 male mice; conditions: 2 mg i.p., N=6 per time point
Method: (§1) Surgical procedures were performed under Halothane (2-3%) anesthesia. Partial sciatic nerve injury was made by tying a tight ligature with 9-0 silk suture around ⅓ to ½ the diameter of the sciatic nerve, as had been described (Malmberg A B and Basbaum A I. Pain 1998; 76:215-222). In mice with sham operation, the sciatic nerve was exposed but not ligated. The mice were subsequently habituated to the test environment for at least 1 hour before thermal test and von Foley hair test. In thermal test, the paw withdrawal latency was determined as an indicator for pain. […], the stimulus intensity was adjusted to give a 10-second withdrawal latency in the normal mouse, while the cutoff in the absence of a response was 20 seconds. The mechanical sensitivity with von Foley hairs was assessed by the up-down paradigm (Chaplan et al, J Neurosci Methods 1994; 53:53-66). The filament for the testing paradigm was chosen to be 0.3-gm.
The same animal model in example 3 was used. The peptide 5 as shown in SEQ ID NO: 5 was tested for its anti-allodynia effects in mice receiving sciatic nerve ligation. Results from the mechanical stimulation (von Foley test) of the sham operated mice and the nerve injured mice were compared in parallel on day 5, 10 and 30 after the surgery.

[3] = system: sciatic nerve injured limb (hyperalgesia); experiment: thermal test (paw withdrawal latency) after partial sciatic nerve injury; format: in vivo, C57BL/6 male mice; conditions: 2 mg i.p., N=6; for temperature-induced pain, paw withdrawal latency: injured limb, day 5, 10 and 30 after surgery, vs untreated (DMSO solvent), FIG. 5
Method: as §1
The peptide 5 as shown in SEQ ID NO: 5 was tested for its anti-hyperalgesia effects in mice receiving sciatic nerve ligation. Results from the thermal test of the sham operated mice and the nerve injured mice were compared in parallel on day 5, 10 and 30 after the surgery.

H1N1 viruses = format: cell-based, influenza A virus H1N1; conditions: 0.001-10 μM; MDCK monolayer; 5,000 pfu/ml; 3 days; FIG. 7 right panel

Compound	p, onset of pain, peptide 5 vs this substance ([1]; peptides 2 mg, morphine 1 mg i.p., FIG. 3)	p, total writhing number in 30 minutes, peptide 5 vs this substance ([1]; peptides 2 mg, morphine 1 mg i.p., FIG. 4)	inhibition of replication of H5N1 viruses in vitro (H5N1 viruses)	p (ANOVA), von Foley hair threshold, untreated vs treated injury-ipsilateral limb ([2]; day 5, 10 or 30)	allodynia, von Foley hair threshold ([2]; injured limb, day 5, 10 and 30 after surgery, vs untreated (pure water), FIG. 6, listed as peptide 5)	onset of the pain induced by intra-peritoneal injection of acetic acid (onset of the 1st writhing) ([1]; 2 mg peptide i.p. 30 min before 1 ml 1% acetic acid i.p., control water alone, FIG. 3)	total writhing number in 30 minutes after acetic acid injection ([1]; 2 mg peptide i.p. 30 min before 1 ml 1% acetic acid i.p., control water alone, FIG. 4)	total writhing number in 30 minutes after acetic acid injection ([1]; 2 mg peptide i.p. 30 min before 1 ml 1% acetic acid i.p., control water alone, FIG. 4, listed as peptide 5)	p (ANOVA), paw withdrawal latency, untreated vs treated injured ipsilateral limb ([3]; day 5, 10 or 30)	temperature-induced pain, paw withdrawal latency [3]	temperature-induced pain, paw withdrawal latency ([3]; listed as peptide 5)	inhibition of replication of H1N1 viruses in vitro (H1N1 viruses)
CN1CC[C@]23c4c5ccc(O)c4O[C@H]2[C@@H](O)C=C[C@H]3[C@H]1C5 [morphine, reference compound]	> 0.05	> 0.05	–	–	–	–	–	–	–	–	–	–
DEAQETAVSSHEQD ((1)..(14) residues 1-14 of rabbit alpha1-antiproteinase F; listed as Oryctolagus cuniculus) [Peptide 5, fragment (residues 1-14) of rabbit α1-antiproteinase F]	–	–	potent effects in inhibiting the replication	< 0.005	significantly increase the tolerance to mechanical stimuli	significant delay in the onset of the pain	significant reduction in the total writhing number	reduced total writhing episodes	< 0.005	significantly reduced the temperature-induced pain	significantly increase the tolerance to the heat-induced pain	potent effects in inhibiting the replication
